In patent publication US10926086B2, “Lymphatic system neuromodulation and uses thereof” (THE FEINSTEIN INSTITUTES FOR MEDICAL RESEARCH, priority 2016, dated 2021):

Legend:
Mice immunized with KLH = assay: Nerve block: antigen signal in sciatic lymph node after bupivacaine; type: in vivo; settings: 25 μl bupivacaine 0.375% at sciatic and femoral nerves before KLH-800CW in hind paw, imaged after one hour, mean±SEM, saline control 31.45±3.759, p<0.05
Experimental: In situ Antigen Imaging. 20 μl of 100 μg/ml labeled antigen was injected subcutaneously into the dorsum of the hind paw with an insulin syringe. After the predetermined time, the animal was euthanized using carbon dioxide, the skin over the area of interest was removed, and the animal was placed in a supine position in an Odyssey infrared imager. To image lymph node antigen content, sciatic and popliteal lymph nodes were surgically removed and placed into black, clear-bottomed 96-well plates filled with T-per (Thermo Scientific). These plates were imaged on the Odyssey imager. Immunization. Unlabeled antigen (100 μg) and 50% Imject alum (Thermo Scientific) in 200 μl 0.9% saline was injected intraperitoneally. Two weeks later, animals were injected again with the same solution as a booster. Two weeks after the booster injection, animals were used for experiments. Control animals received injections of 50% alum in saline. Nerve Block. Mice were immunized with 100 μg antigen and 50% Imject alum in 200 μl saline injected intraperitoneally twice, two weeks apart. Two weeks after the second injections, 25 μl bupivacaine (0.375%, APP Pharmaceuticals) or 0.9% saline was injected at the sciatic nerve and the femoral nerve of the hind leg. 20 minutes after the initial injection, animals were injected with labeled antigen in the dorsum of the hind paw. […]

Naïve Balb/c mice = assay: Passive immunization: labeled antigen accumulation in sciatic lymph nodes; type: in vivo; settings: naïve mice given rabbit polyclonal anti-OVA antibodies i.p.; 24 hours later 800CW-labeled antigen s.c. in dorsum of hind paw; imaged after one hour; mean±SEM
Experimental: In situ Antigen Imaging. 20 μl of 100 μg/ml labeled antigen was injected subcutaneously into the dorsum of the hind paw with an insulin syringe. After the predetermined time, the animal was euthanized using carbon dioxide, the skin over the area of interest was removed, and the animal was placed in a supine position in an Odyssey infrared imager. To image lymph node antigen content, sciatic and popliteal lymph nodes were surgically removed and placed into black, clear-bottomed 96-well plates filled with T-per (Thermo Scientific). These plates were imaged on the Odyssey imager.
Passive Immunization. Naïve Balb/c mice were injected intraperitoneally with 100 μg rabbit polyclonal anti-ovalbumin antibody (Millipore). After 24 hours, mice were injected with OVA-800CW or KLH-800CW subcutaneously in the dorsum of the hind paw. After one hour, mice were euthanized and imaged.

## CCCCN1CCCCC1C(=O)Nc1c(C)cccc1C (centres unmarked) [bupivacaine]
Mice immunized with KLH
  antigen signal in the sciatic lymph node (KLH-800CW fluorescence): 45.65±5.350

B1: OVA: ovalbumin labeled with IrDye 800CW-NHS ester infrared fluorescent dye (conjugate, UniProt P01012 2-386, looked up)
Ovalbumin: GSIGAASMEFCFDVFKELKVHHANENIFYCPIAIMSALAMVYLGAKDSTRTQINKVVRFDKLPGFGDSIEAQCGTSVNVHSSLRDILNQITKPNDVYSFSLASRLYAEERYPILPEYLQCVKELYRGGLEPINFQTAADQARELINSWVESQTNGIIRNVLQPSSVDSQTAMVLVNAIVFKGLWEKAFKDEDTQAMPFRVTEQESKPVQMMYQIGLFRVASMASEKMKILELPFASGTMSMLVLLPDEVSGLEQLESIINFEKLTEWTSSNVMEERKIKVYLPRMKMEEKYNLTSVLMAMGITDVFSSSANLSGISSAESLKISQAVHAAHAEINEAGREVVGSAEAGVDAASVSEEFRADHPFLFCIKHIATNAVLFFGRCVSP
modifications: IRDye 800CW label
notes: ovalbumin labeled with IrDye 800CW-NHS ester infrared fluorescent dye
Naïve Balb/c mice
  accumulation of labeled antigen in the sciatic lymph nodes (fluorescence signal): 6.483±1.461
